Measurements from PMC9154796, “Triazoloquinoxalines-based DNA intercalators-Topo II inhibitors: design, synthesis, docking, ADMET and anti-proliferative evaluations” (Journal of Enzyme Inhibition and Medicinal Chemistry, 2022).

Assays:
HCT116 = assay: MTT colorimetric anti-proliferative assay; settings: Homo sapiens, HCT-116, 72 h, read-out: IC50 HCT116
MCF-7 = assay: MTT colorimetric anti-proliferative assay; settings: Homo sapiens, MCF7, 72 h, read-out: IC50 MCF-7
HepG2 = assay: MTT colorimetric anti-proliferative assay; settings: Homo sapiens, HepG2, 72 h, read-out: IC50 HepG2
human Topo II = human Topo II (Homo sapiens, UniProt P11388); assay: In vitro topoisomerase II inhibitory activity; type: biochemical; settings: supercoiled pHot1 DNA, mean ± SD of three experiments
Sequence of human Topo II (P11388 whole entry): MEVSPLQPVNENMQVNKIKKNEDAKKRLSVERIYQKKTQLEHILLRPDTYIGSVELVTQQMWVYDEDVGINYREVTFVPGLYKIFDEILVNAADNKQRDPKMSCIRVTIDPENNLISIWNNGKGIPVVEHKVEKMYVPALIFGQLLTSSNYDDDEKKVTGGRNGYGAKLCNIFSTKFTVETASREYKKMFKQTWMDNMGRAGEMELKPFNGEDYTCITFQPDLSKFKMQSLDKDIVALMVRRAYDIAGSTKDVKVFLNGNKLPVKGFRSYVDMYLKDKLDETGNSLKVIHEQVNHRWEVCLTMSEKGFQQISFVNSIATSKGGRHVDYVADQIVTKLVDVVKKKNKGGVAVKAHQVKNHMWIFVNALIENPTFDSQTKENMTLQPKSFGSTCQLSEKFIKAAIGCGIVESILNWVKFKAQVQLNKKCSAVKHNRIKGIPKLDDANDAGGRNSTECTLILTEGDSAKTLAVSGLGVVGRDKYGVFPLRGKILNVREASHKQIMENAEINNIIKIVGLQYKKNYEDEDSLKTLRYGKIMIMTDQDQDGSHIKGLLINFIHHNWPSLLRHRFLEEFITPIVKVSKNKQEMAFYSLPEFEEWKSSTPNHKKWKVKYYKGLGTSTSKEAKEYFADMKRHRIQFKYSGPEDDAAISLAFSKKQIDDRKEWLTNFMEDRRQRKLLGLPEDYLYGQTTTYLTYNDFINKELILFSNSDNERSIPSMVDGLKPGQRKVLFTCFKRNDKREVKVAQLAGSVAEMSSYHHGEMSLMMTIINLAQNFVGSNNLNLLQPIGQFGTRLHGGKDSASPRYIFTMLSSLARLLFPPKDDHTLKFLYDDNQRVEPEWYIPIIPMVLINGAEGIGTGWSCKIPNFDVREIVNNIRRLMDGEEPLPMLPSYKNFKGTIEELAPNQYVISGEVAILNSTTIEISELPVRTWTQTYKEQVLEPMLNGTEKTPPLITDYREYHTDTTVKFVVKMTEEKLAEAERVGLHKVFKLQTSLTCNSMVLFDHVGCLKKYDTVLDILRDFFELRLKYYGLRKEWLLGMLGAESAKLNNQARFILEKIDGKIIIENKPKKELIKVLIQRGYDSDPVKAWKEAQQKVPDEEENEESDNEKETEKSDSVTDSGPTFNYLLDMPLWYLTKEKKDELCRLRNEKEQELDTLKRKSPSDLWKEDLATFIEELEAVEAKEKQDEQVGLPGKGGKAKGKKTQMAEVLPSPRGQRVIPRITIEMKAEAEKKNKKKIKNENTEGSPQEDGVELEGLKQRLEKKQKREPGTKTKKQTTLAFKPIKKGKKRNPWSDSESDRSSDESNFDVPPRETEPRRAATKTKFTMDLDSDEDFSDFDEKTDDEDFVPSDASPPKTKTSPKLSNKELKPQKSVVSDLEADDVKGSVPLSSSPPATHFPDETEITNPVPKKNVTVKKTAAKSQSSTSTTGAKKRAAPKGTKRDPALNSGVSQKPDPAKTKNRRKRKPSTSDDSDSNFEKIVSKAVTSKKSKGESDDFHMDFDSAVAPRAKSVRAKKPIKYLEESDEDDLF
Experimental: A mixture of human Topo II (2 µl), substrate super coiled pHot1 DNA (0.25 µg), 50 µg/ml test compound (2 µl), and assay buffer (4 µl). […] Then, the DNA was run for 1–2 h on 1% agarose gel in BioRad gel electrophoresis system followed by staining with GelRedTM stain for 2 h and destained for 15 min with TAE buffer. The gel was imaged via BioRad’s Gel DocTMEZ system. Both supercoiled and linear strands of DNA were incorporated into the gel as markers for DNA-Topo II intercalators. By using the GraphPad Prism version 5.0, the values of IC50 were calculated. Each reaction was performed in duplicate, and at least three independent determinations of each IC50 were made.

DNA = assay: In vitro DNA/methyl green assay (DNA binding); settings: DNA/methyl green displacement, mean ± SD of three experiments
Source text: The extremely potent 6e, 7b, 7c, 7e and 7g were further assessed for their DNA-binding according to the reported procedure using methyl green dye[21]^,[22]^,[49]. DNA-binding affinities results were presented as IC50 and briefed in Table 3.
Methyl green dye can bind DNA to form coloured DNA/methyl green reversible complex. These complexes at neutral pH are still stable. The methyl green is displaced from DNA upon intercalating agents addition. Colourless carbinol was formed by the addition of H2O to the dye, leading to a dramatic decrease in spectrophotometric absorbance. ΔA value (the difference between DNA/methyl green complex and free cabinol) provides the simplest means for detecting the DNA-binding affinity and relative binding strength. IC50 values were determined using the GraphPadPrism 5.0 software[21]^,[22]^,[49].

VERO normal cells = assay: Cytotoxicity against VERO normal cell lines; type: cell-based; settings: for IC50: Chlorocebus sabaeus, VERO normal cells, mean ± SD of three experiments; for fold safer in VERO normal cells compared to breast cancer cell lines (MCF-7): VERO versus MCF-7
Experimental: The cytotoxicity of these compounds against the cancer cell lines was from 3.41 to 9.51 µM. Derivatives 7b, 7c, 7e and 7g are respectively, 7.88, 10.81, 16.16 and 4.50 fold safer in VERO normal cells compared to breast cancer cell lines (MCF-7, the most sensitive cells).
The cytotoxicity assays were performed at Al-Azhar University, Pharmacology & Toxicology Department, Cairo, Egypt. Cancer cells from different cancer cell lines HCT-116, HepG2 and MCF-7, were purchased from ATCC, Manassas, USA and grown on the appropriate growth medium Roswell Park Memorial Institute medium (RPMI 1640) supplemented with […] of streptomycin, 100 units/mL of penicillin and 10% of heat-inactivated foetal bovine serum in a humidified, 5% (v/v) CO2 atmosphere at 37 °C Cytotoxicity assay by 3-[4,5-dimethylthiazole-2-yl]-2,5-diphenyltetrazolium bromide (MTT).
Cancer cell lines were trypsinized, counted and seeded into 96-well microtiter plates.

[1] = test system: melanoma A375 cancer cells; set-up: method as in PMID 18513976; settings: cited from earlier work

| SMILES | IC50 (HCT116) [µM] | melting point [°C] | IC50 (MCF-7) [µM] | IC50 (HepG2) [µM] | IC50 (human Topo II) [µM] | IC50 (DNA) [µM] | IC50 (VERO normal cells) [µM] | fold safer in VERO normal cells compared to breast cancer cell lines (MCF-7) (VERO normal cells) [fold] | fold more active than fotemustine [1] [fold] | fold more active than imiquimod [1] [fold] |
| --- | --- | --- | --- | --- | --- | --- | --- | --- | --- | --- |
| CC(=O)c1ccc(Nc2nc3ccccc3n3cnnc23)cc1 [Compound 5, 1-{4-([1,2, 4]Triazolo[4,3-a]quinoxalin-4-ylamino)phenyl}ethan-1-one] | 11.4 ± 1.4 | 171 to 172 | 10.3 ± 1.28 | 12.7 ± 0.13 | – | – | – | – | – | – |
| O=C(C=Cc1ccccc1)c1ccc(Nc2nc3ccccc3n3cnnc23)cc1 [Compound 6a, 1-{4-([1,2, 4]Triazolo[4,3-a]quinoxalin-4-ylamino)phenyl}-3-phenylprop-2-en-1-one] | 11.2 ± 1.2 | 275 to 277 | 10.1 ± 1.31 | 14.06 ± 0.13 | – | – | – | – | – | – |
| O=C(C=Cc1ccc(Cl)cc1)c1ccc(Nc2nc3ccccc3n3cnnc23)cc1 [Compound 6b, 1-{4-([1,2, 4]Triazolo[4,3-a]quinoxalin-4-ylamino)phenyl}-3–(4-chlorophenyl)prop-2-en-1-one] | 31.2 ± 1.4 | 240 to 243 | 25.8 ± 2.8 | 35.2 ± 3.3 | – | – | – | – | – | – |
| O=C(C=Cc1ccc(F)cc1)c1ccc(Nc2nc3ccccc3n3cnnc23)cc1 [Compound 6c, 1-{4-([1,2, 4]Triazolo[4,3-a]quinoxalin-4-ylamino)phenyl}-3–(4-fluorophenyl)prop-2-en-1-one] | 9.53 ± 0.93 | 247 to 249 | 8.61 ± 0.62 | 11.3 ± 1.1 | – | – | – | – | – | – |
| O=C(C=Cc1c(Cl)cccc1Cl)c1ccc(Nc2nc3ccccc3n3cnnc23)cc1 [Compound 6d, 1-{4-([1,2, 4]Triazolo[4,3-a]quinoxalin-4-ylamino)phenyl}-3–(2,6-dichlorophenyl)prop-2-en-1-one] | 19.4 ± 1.7 | 260 to 263 | 14.6 ± 1.57 | 16.9 ± 1.4 | – | – | – | – | – | – |
| Cc1ccc(C=CC(=O)c2ccc(Nc3nc4ccccc4n4cnnc34)cc2)cc1 [Compound 6e, 1-{4-([1,2, 4]Triazolo[4,3-a]quinoxalin-4-ylamino)phenyl}-3-(p-tolyl)prop-2-en-1-one] | 10.2 ± 1.7 | 245 to 247 | 9.95 | 10.9 ± 1.9 | 1.27 ± 0.4 | 38 ± 0.4 | – | – | – | – |
| COc1ccc(C=CC(=O)c2ccc(Nc3nc4ccccc4n4cnnc34)cc2)cc1 [Compound 6f, 1-{4-([1,2, 4]Triazolo[4,3-a]quinoxalin-4-ylamino)phenyl}-3–(4-methoxyphenyl)prop-2-en-1-one] | 16.4 ± 1.7 | 250 to 253 | 13.2 ± 1.39 | 18 ± 1.6 | – | – | – | – | – | – |
| O=C(C=Cc1cccc([N+](=O)[O-])c1)c1ccc(Nc2nc3ccccc3n3cnnc23)cc1 [Compound 6g, 1-{4-([1,2, 4]Triazolo[4,3-a]quinoxalin-4-ylamino)phenyl}-3–(3-nitrophenyl)prop-2-en-1-one] | 13.7 ± 1.7 | 257 to 259 | 12.2 ± 1.03 | 17.2 ± 1.5 | – | – | – | – | – | – |
| O=C(C=Cc1ccc([N+](=O)[O-])cc1)c1ccc(Nc2nc3ccccc3n3cnnc23)cc1 [Compound 6h, 1-{4-([1,2, 4]Triazolo[4,3-a]quinoxalin-4-ylamino)phenyl}-3–(4-nitrophenyl)prop-2-en-1-one] | 12.4 ± 1.1 | 261 to 263 | 11.7 ± 1.68 | 15.6 ± 1.2 | – | – | – | – | – | – |
| Clc1ccc(C2CC(c3ccc(Nc4nc5ccccc5n5cnnc45)cc3)=NN2)cc1 (stereo not shown) [Compound 7b, N-{4-[5–(4-Chlorophenyl)-4,5-dihydro-1H-pyrazol-3-yl]phenyl}-[1,2, 4]triazolo[4,3-a]quinoxalin-4-amine] | 6.9 ± 0.95 | – | 5.88 ± 0.74 | 7.46 ± 0.13 | 1.05 ± 0.4 | 32.5 ± 3 | 46.32 ± 0.2 | 7.88 | – | – |
| Fc1ccc(C2CC(c3ccc(Nc4nc5ccccc5n5cnnc45)cc3)=NN2)cc1 (stereo not shown) [Compound 7c, N-{4-[5–(4-Fluorophenyl)-4,5-dihydro-1H-pyrazol-3-yl]phenyl}-[1,2, 4]triazolo[4,3-a]quinoxalin-4-amine] | 6.22 ± 0.63 | – | 4.45 ± 0.14 | 6.33 ± 0.14 | 0.94 ± 0.4 | 31.2 ± 2.9 | 48.11 ± 0.2 | 10.81 | – | – |
| Cc1ccc(C2CC(c3ccc(Nc4nc5ccccc5n5cnnc45)cc3)=NN2)cc1 (stereo not shown) [Compound 7e, N-{4-[5-(p-Tolyl)-4,5-dihydro-1H-pyrazol-3-yl]phenyl}-[1,2, 4]triazolo[4,3-a]quinoxalin-4-amine] | 5.75 ± 0.37 | – | 3.41 ± 0.43 | 6.15 ± 1.2 | 0.89 ± 0.4 | 29.1 ± 2.2 | 55.09 ± 0.16 | 16.16 | – | – |
| O=[N+]([O-])c1ccc(C2CC(c3ccc(Nc4nc5ccccc5n5cnnc45)cc3)=NN2)cc1 (stereo not shown) [Compound 7g, N-{4-[5–(4-Nitrophenyl)-4,5-dihydro-1H-pyrazol-3-yl]phenyl} -[1,2, 4]triazolo[4,3-a]quinoxalin-4-amine] | 8.96 ± 0.37 | – | 8.62 ± 0.95 | 9.51 ± 1.1 | 1.22 ± 0.4 | 36.5 ± 0.4 | 38.77 ± 0.16 | 4.50 | – | – |
| COc1cccc2c1C(=O)c1c(O)c3c(c(O)c1C2=O)C[C@@](O)(C(=O)CO)C[C@@H]3O[C@H]1C[C@H](N)[C@H](O)[C@H](C)O1 [Doxorubicin, reference compound] | – | – | 6.75 ± 0.4 | – | – | 31.3 ± 1.8 | – | – | – | – |
| CNc1nc2ccccc2n2c(CCc3ccccc3)cnc12 [EAPB0203] | – | – | – | – | – | – | – | – | 110 | 45 |

Second part, led by results:

| IC50 (HCT116) [µM] | melting point [°C] | IC50 (MCF-7) [µM] | IC50 (HepG2) [µM] | SMILES | IC50 (human Topo II) [µM] | IC50 (DNA) [µM] | IC50 (VERO normal cells) [µM] | fold safer in VERO normal cells compared to breast cancer cell lines (MCF-7) (VERO normal cells) [fold] | fold more active than fotemustine [1] [fold] | fold more active than imiquimod [1] [fold] |
| --- | --- | --- | --- | --- | --- | --- | --- | --- | --- | --- |
| 18.2 ± 1.6 | 150 to 152 | 15.4 ± 1.42 | 20.3 ± 1.9 | c1ccc(C2CC(c3ccc(Nc4nc5ccccc5n5cnnc45)cc3)=NN2)cc1 (stereo not shown) [Compound 7a, N-{4–(5-Phenyl-4,5-dihydro-1H-pyrazol-3-yl)phenyl}-[1,2, 4]triazolo[4,3-a]quinoxalin-4-amine] | – | – | – | – | – | – |
| 10.2 ± 0.22 | 176 to 178 | 7.56 ± 0.92 | 12 ± 1.2 | Clc1cccc(Cl)c1C1CC(c2ccc(Nc3nc4ccccc4n4cnnc34)cc2)=NN1 (stereo not shown) [Compound 7d, N-{4-[5–(2,6-Dichlorophenyl)-4,5-dihydro-1H-pyrazol-3-yl]phenyl}-[1,2, 4]triazolo[4,3-a]quinoxalin-4-amine] | – | – | – | – | – | – |
| 16.2 ± 1.6 | 195 to 197 | 14.5 ± 1.03 | 17.3 ± 1.9 | O=[N+]([O-])c1cccc(C2CC(c3ccc(Nc4nc5ccccc5n5cnnc45)cc3)=NN2)c1 (stereo not shown) [Compound 7f, N-{4-[5–(3-Nitrophenyl)-4,5-dihydro-1H-pyrazol-3-yl]phenyl} -[1,2, 4]triazolo[4,3-a]quinoxalin-4-amine] | – | – | – | – | – | – |
